Assay [1] has as its target acyl-CoA: cholesterol acyltransferase (ACAT). As to the kind of experiment: In vitro ACAT inhibition: radiolabeled cholesterol oleate formed from radiolabeled oleic acid in rabbit intestinal microsomes. It is filed as biochemical. Conditions: tissue preparation containing rabbit intestinal microsomes; concentration required to inhibit the activity of the enzyme by 50%. As to the method: The ability of representative compounds of the present invention to inhibit ACAT was measured using an in vitro test more fully described in F. J. Field and R. G. Salone, Biochemica et Biophysica 712:557-570 (1982). The test assesses the ability of a test compound to inhibit the acylation of cholesterol by oleic acid by measuring the amount of radiolabeled cholesterol oleate formed from radiolabeled oleic acid in a tissue preparation containing rabbit intestinal microsomes.
The data appear in Table 1 where they are expressed as ICso values; i.e., the concentration of test compound required to inhibit the activity of the enzyme by 50%.

In another assay the test system is male Sprague-Dawley rats. Put plainly: In vivo screen APCC: blood cholesterol in rats fed PCC diet overnight. Conditions: blood cholesterol versus vehicle (CMC/Tween); dosed at 4 PM, PCC diet with 1 % or 0.5% cholic acid overnight, sacrificed at 8 AM; dose not given. From the text:
In one in vivo screen designated APCC, male Sprague-Dawley rats (200 to 225 g) were randomly divided into treatment groups and dosed at 4 PM with either vehicle (CMC/Tween) or suspensions of compounds in vehicle. The normal chow diet was then replaced with the PCC diet with either 1 % or 0.5% cholic acid, as indicated. The rats consumed this diet ad libitum during the night and were sacrificed at 8 AM to obtain blood samples for cholesterol analysis using standard procedures. Statistical differences between mean cholesterol values for the same vehicle were determined using analysis of variance followed by Fisher's least significant test.

For orientation: IC50 means the concentration that gives 50% inhibition. Read a high IC50 as lower potency.

Take `CC(C)c1cccc(C(C)C)c1NC(=O)CC(=O)N(Cc1ccccc1)Cc1ccccc1` [N'-[2,6-bis(1-methylethyl)-phenyl]-N,N-bis(phenylmethyl)-propanediamide]: the half-inhibitory concentration (IC50) in assay [1] amounted to 13 nM. For the same compound, the “% Change (mg/dl)” value in the assay with male Sprague-Dawley rats is -42%. On the same counts, the results for `CC(C)c1cccc(C(C)C)c1NC(=O)CC(=O)N(C(C)C)C(c1ccccc1)c1ccccc1` [N'-[2,6-bis(1-methylethyl)-phenyl]-N-(diphenylmethyl)-N-(1-methylethyl)propanediamide] are 20 nM and -41%. `CC(C)c1cccc(C(C)C)c1NC(=O)CC(=O)NCC(c1ccccc1)c1ccccc1` [N-[2,6-Bis(1-methylethyl)phenyl]-N'-(2,2-diphenylethyl)propanediamide] came in with an IC50 in assay [1] of 770 nM. As for `CC(C)c1cccc(C(C)C)c1NC(=O)CC(=O)NC(c1ccccc1)c1ccccc1` [N-[2,6-bis(1-methylethyl)-phenyl-N'-(diphenylmethyl)-propanediamide], in assay [1], 490 nM corresponded to half-maximal inhibition (IC50). The “% Change (mg/dl)” value in the assay on male Sprague-Dawley rats is reported as -20%. On the same counts, the results for `CC(C)c1cccc(C(C)C)c1NC(=O)CC(=O)NCC1(c2ccccc2)CCCC1` [N-[2,6-bis(1-methylethyl)-phenyl]-N'-(1-phenylcyclo-pentyl)methylpropanediamide] are 990 nM and “+7%”.

Values taken from patent EP0433662A2, “Acat inhibitors” (WARNER-LAMBERT COMPANY, priority 1989, dated 1991).
